From BindingDB's records for patent US20250066349 (Prothena Biosciences, 2025)
pIC50: −log10 of the molar value.

Target: Dual specificity tyrosine-phosphorylation-regulated kinase 1A (Homo sapiens, UniProt Q13627)
Experiment: DYRK1A Inhibition Assay
Experimental: 1. Add 5 μL enzyme & substrate mixture to each well in Column 2-23 and A24-H24 wells of the 384-well assay plate;2. Add 5 μL 0% Phosphorylation control to A1-H1 and I24-P24 wells of the assay plate;3. Add 5 μL 100% Phosphorylation control to I1-P1 wells of the assay plate;4. Spin the assay plate (1000 rpm, 1 minute @23° C.);5. Incubate enzyme with compounds for 15 minutes at 23° C.;6. Add 5 μL ATP solution to each well of the assay plate;7. Spin the plate (1000 rpm, 1 minute @23° C.);8. Incubate the assay plate for 90 minutes at 23° C.;9. Add 10 μL Development reagent A to each well of the assay plate;10. Centrifuge the plate at 1000 rpm about 15 seconds and seal a film over assay plate. Incubate the assay plate for 30 minutes at 23° C.11. Read assay plates on Envision (see Tables A-D).

SMILES: Cn1cc(-c2ccc3cnc4[nH]cc(C5CCC5)c4c3c2)cn1 [US20250066349, Compound I.1]
- pIC50: > 8.00

SMILES: COC(=O)c1ccc2c(cnc3[nH]cc(-c4ccc(F)cc4)c32)c1 [US20250066349, Compound I.4]
- pIC50: < 6.00

SMILES: Cc1ncc(-c2ccc3cnc4[nH]cc(C5CCCCC5)c4c3c2)s1 [US20250066349, Compound I.6]
- pIC50: > 8.00

SMILES: COC1CC=C(c2n[nH]c3ncc4ccc(-c5cnn(C)c5)cc4c23)CC1 (configuration not stated) [US20250066349, Compound I.8]
- pIC50: > 8.00

SMILES: COC1CCC(c2c[nH]c3ncc4ccc(-c5cnn(C)c5)cc4c23)CC1 (configuration not stated) [US20250066349, Compound I.13]
- pIC50: > 8.00

SMILES: Cn1cc(-c2ccc3cnc4[nH]cc(C5CCC(O)CC5)c4c3c2)cn1 (configuration not stated) [US20250066349, Compound I.14]
- pIC50: > 8.00

SMILES: Cn1cc(-c2ccc3cnc4[nH]cc(C5CC(O)C5)c4c3c2)cn1 (configuration not stated) [US20250066349, Compound I.18]
- pIC50: > 8.00

SMILES: COC1CC(c2c[nH]c3ncc4ccc(-c5cnn(C)c5)cc4c23)C1 (configuration not stated) [US20250066349, Compound I.23]
- pIC50: > 8.00

SMILES: Cn1cc(-c2ccc3cnc4[nH]cc(C5CCC(C(=O)O)CC5)c4c3c2)cn1 (configuration not stated) [US20250066349, Compound I.24]
- pIC50: > 8.00

SMILES: Cc1c(C2CCOCC2)[nH]c2ncc3ccc(-c4cnn(C)c4)cc3c12 [US20250066349, Compound I.51]
- pIC50: > 8.00

SMILES: Cn1cc(-c2ccc3c(-c4ccc5cnn(C)c5c4)cnn3c2)ccc1=O [US20250066349, Compound II.1]
- pIC50: > 8.00

SMILES: Cn1cc(-c2ccc3c(-c4ccc5cnsc5c4)cnn3c2)ccc1=O [US20250066349, Compound II.2]
- pIC50: > 8.00

SMILES: CN1CCC(C(=O)Nc2ncc(-c3ccc4c(c3)COC4=O)s2)CC1 [US20250066349, Compound III.2]
- pIC50: > 7.30

SMILES: CN1CCC(C(=O)Nc2ncc(-c3ccc4oncc4c3)s2)CC1 [US20250066349, Compound III.4]
- pIC50: > 7.30

SMILES: CC(=O)N1CCc2c(cnc3[nH]cc(C4CCC4)c23)C1 [US20250066349, Compound IV.1]
- pIC50: > 6.30

SMILES: CC(=O)N1CCc2c(cnc3[nH]cc(-c4ccc5c(c4)OCO5)c23)C1 [US20250066349, Compound IV.6]
- pIC50: > 6.30

SMILES: Cn1ncc2c3ccc(C#N)cc3ncc21 [US20250066349, Compound IV.14]
- pIC50: > 6.30

SMILES: CN(C)CCOc1ccc2c(c1)[nH]c(=O)c1cc(-c3ccncc3)cn12 [US20250066349, Compound IV.18]
- pIC50: > 6.30

SMILES: N#Cc1ccc2c(c1)ncc1c(Oc3cccc(Cl)c3)cncc12 [US20250066349, Compound IV.21]
- pIC50: < 5.30

SMILES: CN1CCc2c([nH]c(=O)c3cc(C4CCOCC4)ccc23)C1 [US20250066349, Compound IV.22]
- pIC50: < 5.30

SMILES: CN1CCc2c([nH]c(=O)c3cc(C4=CCOCC4)ccc23)C1 [US20250066349, Compound IV.23]
- pIC50: < 5.30

SMILES: COc1ccc(-c2ccc3c4c([nH]c(=O)c3c2)CN(C)CC4)cc1OC [US20250066349, Compound IV.24]
- pIC50: < 5.30
